In US10302663B2, “Method of assessing pancreatic beta-cell function” (METABOLON, INC., priority 2011, dated 2019):

Assays:
[1] = system: INS-1e cells; test: Glucose-stimulated insulin release in INS-1e cells; type: cell-based, rat; conditions: INS-1e cells incubated 48 h with physiological concentrations of metabolite, then 3.3, 11, 20 mM glucose or 20 mM glucose+10 mM arginine, FIG. 2
Description: Clonal INS-1e cells, derived and selected from a parental rat insulinoma INS-1 cell line (University of Geneva, Geneva, Switzerland), were grown in monolayer culture in RPMI 1640 medium containing 11.1 mM glucose. The culture medium was supplemented with 10% heat-inactivated fetal calf serum, 1 mM sodium pyruvate, 10 mM HEPES, 2 mM glutamine, 50 μmol/liter β-mercaptoethanol, 100 U/ml penicillin, and 100 μg/ml streptomycin. Cells were cultured at 37 C in a humidified 95% air-5% CO2 atmosphere. Cells were seeded onto wells at a density of 1.5×10^5 cells/well at least 96 h before using them in the insulin secretion experiments. Tissue culture reagents were obtained from Life Technologies, Inc. Invitrogen (Basel, Switzerland).
The insulin secretory response to glucose was tested in INS-1e cells. When cells had reached approximately 80% confluence, cells were incubated for 48 h in fresh RPMI 1640 medium containing 11.1 mM glucose, in the presence or absence of different physiological concentrations of metabolites alpha-hydroxybutyrate (2-HB) (Sigma-Aldrich) and linoleoyl-glycerophosphocholine (L-GPC) (Avanti Polar Lipids). Next, cells were maintained for 1 h in glucose-free Krebs-Ringer bicarbonate HEPES buffer containing 135 mm NaCl, 3.6 mm KCl, 5 mm NaHCO3, 0.5 mm Na H2PO4, 0.5 mm MgCl2, 1.5 mm CaCl2, 10 mm HEPES, and BSA 0.1% (glucose-free; pH 7.4; starvation period) and then washed with glucose-free Krebs-Ringer bicarbonate-HEPES buffer and subsequently incubated for […] with Krebs-Ringer bicarbonate-HEPES buffer containing 3.3, 11, 20 mM glucose, or 20 mM glucose+10 mM arginine. At the end of incubation, supernatants were collected to measure insulin concentration (Linco Research, St. Charles, Mo.). Cellular insulin contents were determined in acid-ethanol extracts. The insulin secretory response to glucose was expressed as the ratio of insulin concentration in the supernatant to the cellular insulin content.

[2] = Beta-cell biomarker levels in fasted plasma in response to pioglitazone therapy in IGT subjects; type: in vivo, human; conditions: pioglitazone 45 mg/day, 2.4 years, baseline vs study end
Description: In another study, the relationship between changes in the IS/IR Disposition index and changes in the levels of the beta-cell function biomarkers, AHB and LGPC following drug treatment were determined. The study cohort consisted of 431 IGT subjects (FPG=105, 2-h PG [OGTT]=168, HbA1C=5.5%) who were randomized to pioglitazone (45 mg/day) or placebo and followed for 2.4 years. Fasted plasma samples were analyzed at baseline and study end for AHB, LGPC, insulin, HbA1c and Matsuda index.
A method for measuring each of the biomarkers listed in Table 4 in EDTA human plasma was developed. Human plasma samples were spiked with internal standards and subjected to protein precipitation as described below. Following centrifugation, the supernatant was removed and injected onto a Waters Acquity/Thermo Quantum Ultra LC-MS-MS system using four different chromatographic systems (column/mobile phase combinations).

| Structure (SMILES) | effect on glucose-stimulated insulin release (ratio of insulin in supernatant to cellular insulin content) [1] | effect on glucose-stimulated insulin release (ratio of insulin in supernatant to cellular insulin content) ([1]; listed as 2-hydroxybutyrate) | effect on glucose-stimulated insulin release (ratio of insulin in supernatant to cellular insulin content) ([1]; listed as Linoleoyl-GPC) | Fold change of Linoleoyl-GPC Before and after PIO ([2]; p<0.005) | Fold change of α-HB Before and after PIO ([2]; p=0.001) |
| --- | --- | --- | --- | --- | --- |
| CC[C@H](O)C(=O)O [AHB, 2-hydroxybutyrate] | inhibited the glucose stimulated release of insulin | inhibitory effect |  |  |  |
| CCCCC/C=C\C/C=C\CCCCCCCC(=O)OC[C@@H](O)COP(=O)([O-])OCC[N+](C)(C)C [LGPC, linoleoyl lysophosphatidylcholine] | stimulated the glucose stimulated release of insulin |  | stimulatory effect |  |  |
| CCc1ccc(CCOc2ccc(CC3SC(=O)NC3=O)cc2)nc1 (stereo not drawn) [PIO, pioglitazone] |  |  |  | 1.21 ↑ | 0.90 ↓ |
